The values below come from publication PMC6747323, “Discovery of Novel Angiotensin-Converting Enzyme Inhibitory Peptides from Todarodes pacificus and Their Inhibitory Mechanism: In Silico and In Vitro Studies” (International Journal of Molecular Sciences, 2019).

Ends that are not written are not given here. Peptide text beside a SMILES is read from it.

For one assay, the system named is spontaneously hypertensive rats.
Assay: not given
Further details: method as in PMID 28102435. The settings on record: cited from earlier work.
In the case of KVLPVPQ, the Antihypertensive effect entry is given as “effective”.

Another assay deals with ACE.
Assay: not given
The settings on record: from porcine skeletal muscle hydrolysate; cited from earlier work.
For the compound “Met-Asn-Pro-Pro-Lys (MNPPK; printed: Met-Asn-Pro-Pro-Lys)”, the “pIC50 (ACE inhibition)” value is 3.02.

The same assay, now with this note: peptide derived from catfish myofibrillar protein; cited from earlier work.
For the compound “Ile-Glu-Lys-Pro (IEKP; printed: Ile-Glu-Lys-Pro)”, the “IC50 (ACE inhibition)” value is 2.1 µg/mL.

Staying with this assay, now noted: β-casein fragment; cited from earlier work.
As for KVLPVPQ, the “ACE inhibitory activity in vitro” value is given as “relatively weak”.

In the next assay the target is T1, ACE from rabbit lungs (Oryctolagus cuniculus, UniProt P12822).
T1 construct: The ACE from rabbit lungs; purchased Sigma Chemical Company (St. Louis, MO, USA); host or cells: rabbit lung tissue
T1 sequence (P12822 34-1310): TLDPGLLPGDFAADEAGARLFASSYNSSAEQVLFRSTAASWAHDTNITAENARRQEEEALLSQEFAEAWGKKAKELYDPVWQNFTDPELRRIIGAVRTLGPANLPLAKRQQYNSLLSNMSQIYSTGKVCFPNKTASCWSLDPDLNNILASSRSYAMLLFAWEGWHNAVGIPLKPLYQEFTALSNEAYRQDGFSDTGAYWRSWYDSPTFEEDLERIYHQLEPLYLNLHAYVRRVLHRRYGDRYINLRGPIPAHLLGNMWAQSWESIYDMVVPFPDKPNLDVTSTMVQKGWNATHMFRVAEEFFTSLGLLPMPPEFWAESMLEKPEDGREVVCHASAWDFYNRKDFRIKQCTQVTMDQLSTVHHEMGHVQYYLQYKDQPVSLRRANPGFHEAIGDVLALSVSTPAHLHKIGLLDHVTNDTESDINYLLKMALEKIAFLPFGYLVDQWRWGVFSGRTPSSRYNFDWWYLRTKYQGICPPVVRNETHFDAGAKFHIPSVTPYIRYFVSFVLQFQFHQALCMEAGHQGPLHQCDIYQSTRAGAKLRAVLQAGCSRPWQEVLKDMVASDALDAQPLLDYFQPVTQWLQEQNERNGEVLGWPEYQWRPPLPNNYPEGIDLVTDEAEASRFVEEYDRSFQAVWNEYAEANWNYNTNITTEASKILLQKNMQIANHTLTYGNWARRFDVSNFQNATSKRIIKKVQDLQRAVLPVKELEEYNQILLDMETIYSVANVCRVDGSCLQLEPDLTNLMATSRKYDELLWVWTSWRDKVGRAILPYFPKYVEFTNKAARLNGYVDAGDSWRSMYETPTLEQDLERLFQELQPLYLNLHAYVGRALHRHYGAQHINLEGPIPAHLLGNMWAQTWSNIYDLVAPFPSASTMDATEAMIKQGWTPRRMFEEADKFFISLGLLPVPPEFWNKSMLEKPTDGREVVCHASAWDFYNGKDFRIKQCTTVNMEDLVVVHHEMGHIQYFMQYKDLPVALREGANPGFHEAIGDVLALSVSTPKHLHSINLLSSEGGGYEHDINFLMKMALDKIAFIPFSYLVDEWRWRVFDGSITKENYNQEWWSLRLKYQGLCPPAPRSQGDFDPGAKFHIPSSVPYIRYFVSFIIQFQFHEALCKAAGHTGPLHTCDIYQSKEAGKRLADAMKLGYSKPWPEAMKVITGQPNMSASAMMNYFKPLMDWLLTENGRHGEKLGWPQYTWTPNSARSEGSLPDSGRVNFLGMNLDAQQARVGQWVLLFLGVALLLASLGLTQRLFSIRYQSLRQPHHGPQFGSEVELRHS
Nature of the assay: In vitro ACE inhibitory activity (HHL substrate, hippuric acid by UPLC). It is filed as biochemical. The settings on record: synthesized new peptides, read-out: pIC50 (ACE inhibition) (converted). The source says: The tested peptides from t hmyosin heavy chain in Todarodes pacificus were provided by Anhui Guoping Pharmaceutical Co., Ltd. (Hefei, China). The ACE from rabbit lungs, hippuryl-histidyl-leucine (HHL), and hippuric acid (HA) were purchased from the Sigma Chemical Company (St. Louis, MO, USA). The solvents for high performance liquid chromatography (HPLC) including acetonitrile and trifluoroacetic acid (TFA) were provided by Merck (Darmstadt, Germany). All the other reagents and chemicals used were of analytical grade.
The ACE inhibitory activity analysis was performed based on Yu et al. with some modifications. HHL was dissolved in 100 mM sodium borate buffer (pH 8.3) to achieve a final concentration of 5.8 mM. A reaction mixture containing 50 μL of ACE solution (100 mU/mL) and 100 μL of sample were pre-incubated at 37 °C for 5 min. Subsequently, 150 μL HHL was added and the mixture was incubated at 37 °C for 60 min. The reaction was terminated by the addition of 200 μL of 0.1 M HCl. […] The amount of HA was determined via an ultra-performance liquid chromatography on a Waters Acquity UPLC BEH C18 column (1.7 μm, 2.1 mm × 100 mm). […] The degree of ACE inhibition was calculated as follows:(1) ACE inhibition activity (%)=A−B/A×100% where A was the HA concentration of a reaction containing ACE without peptide, B was the HA concentration of a reaction in the presence of ACE and peptide. […]
Take `NCCCC[C@H](NC(=O)[C@@H]1CCCN1C(=O)[C@@H]1CCCN1C(=O)[C@@H](N)CC(N)=O)C(=O)O` [NPPK, Asn-Pro-Pro-Lys] (H-NPPK-OH): the IC50 was 38.9 µM.

The test system of the next assay is ACE.
Assay: not given
Further details: method as in AHTpin and BIOPEP-UWM databases. As to conditions: Table S1, plant proteases without PREP; ref AHTpin and BIOPEP-UWM databases; cited from earlier work.
For orientation: pIC50 means the IC50 on a negative log10 scale, so that one unit is a factor of ten. For the compound Ala-Gly [AG], the pIC50 is 2.60.

Regarding Ala-His [AH], the pIC50 is on record as 3.28.

For Ala-Phe [AF], the pIC50 is 3.78.

For Ala-Ser-Leu [ASL], the pIC50 was 3.99.

Consider Ala-Tyr [AY], for which the pIC50 was 4.85.

On to Asn-Gly [NG], for which the pIC50 was 1.92.

For the compound Asn-Tyr [NY], the pIC50 is recorded as 4.49.

As for Asp-Gly [DG], the pIC50 is recorded as 5.67.

As to Asp-Tyr [DY], the pIC50 is on record as 4.00.

Consider Gln-Lys [QK], for which the pIC50 is 3.05.

For Glu-Gly [EG], the pIC50 is 2.00.

Turning to Glu-Trp [EW], the pIC50 was 3.86.

With Glu-Tyr [EY], the pIC50 is given as 5.57.

Consider Ile-Arg [IR], for which the pIC50 was 3.16.

With Ile-Leu, the pIC50 was 4.26.

Ile-Phe [IF]: the pIC50 is listed as 4.18.

Turning to Ile-Tyr [IY], the pIC50 is reported as 5.68.

Turning to Met-Gly [MG], the pIC50 is reported as 2.32.

Take Met-Phe [MF]: the pIC50 was 6.04.

For Met-Tyr [MY], the pIC50 is 3.71.

On to Pro-Leu [PL], for which the pIC50 is reported as 3.47.

As for Pro-Pro-Lys [PPK], the negative-log IC50 (pIC50) is reported as 3.00.

Take Ser-Gly [SG]: the pIC50 is 2.07.

Take Ser-Phe [SF]: the pIC50 is recorded as 3.89.

Take Ser-Thr [ST]: the pIC50 is listed as 5.39.

As for Thr-Phe [TF], the pIC50 is reported as 4.74.

For Trp-Leu [WL], the pIC50 is reported as 4.52.

Take Val-Ala-Phe [VAF]: the pIC50 was 4.45.

On to Val-Phe [VF], for which the pIC50 was 5.04.

Staying with this assay, now noted: Table S2, plant proteases with PREP; ref AHTpin and BIOPEP-UWM databases; cited from earlier work.
As for Ala-Ile-Pro [AIP], the negative logarithm of the IC50 (pIC50) was 3.46.

For the compound Ala-Pro [AP], the pIC50 is 4.54.

Regarding Ala-Val-Pro [AVP], the pIC50 was 3.47.

As to Lys-Pro [KP], the pIC50 is reported as 4.66.

In the case of Thr-Pro [TP], the pIC50 is on record as 3.54.

Consider Val-Pro [VP], for which the pIC50 is 3.38.
